Experimental data published in US10212934B2, “Pesticidal compositions” (BASF AGRO B.V., priority 2014, dated 2019).
Read-outs that look alike come from different tables or passages of the source.

How the values were obtained:
Format in all cases: cell-based
Conditions in all cases: 7 days after inoculation
Botrytis cinerea = test: M2 microtiterplate test, grey mold Botrytis cinerea (Botrci)
Leptosphaeria nodorum = test: M6 microtiter test, wheat leaf spots caused by Leptosphaeria nodorum (Leptno)
Alternaria solani = test: M5 microtiter test, early blight caused by Alternaria solani (Alteso)
Septoria tritici = test: M4 microtiter test, leaf blotch on wheat caused by Septoria tritici (Septtr)
Pyricularia oryzae = test system: Pyricularia oryzae
Phytophthora infestans = test system: Phytophthora infestans

CC(C)(C)C(O)C(Oc1ccc(Cl)cc1)n1cncn1 (centres unmarked) [Triadimenol (II-2), (1 RS,2 RS;1 RS,2 SR)-1-(4-chlorophenoxy)-3,3-dimethyl-1-(1H-1,2,4-triazol-1-yl)butan-2-ol] was tested, and the Observed efficacy (Botrytis cinerea; 4 ppm) was 39%.
Compound CC(c1ccc(C(F)(F)F)nc1)S(C)(=O)=NC#N (centres unmarked) [Sulfoxaflor (II-3), [methyl(oxo){1-[6-(trifluoromethyl)-3-pyridyl]ethyl}-Λ^6-sulfanylidene]cyanamide] has an Observed efficacy (Leptosphaeria nodorum; 16 ppm (commercial finished formulation diluted with water)) of 0%.
Cc1cc(C(F)(F)F)nn1CC(=O)N1CCC(c2nc(C3=NOC(c4c(F)cccc4F)C3)cs2)CC1 (racemic) [Oxathiapiprolin (II-1), 1-(4-{4-[(5 RS)-5-(2,6-difluorophenyl)-4,5-dihydro-1,2-oxazol-3-yl]-1,3-thiazol-2-yl}-1-piperidyl)-2-[5-methyl-3-(trifluoromethyl)-1H-pyrazol-1-yl]ethanone] was tested, and the Observed efficacy (Botrytis cinerea; 16 ppm) was 4% and the Observed efficacy (Botrytis cinerea; 63 ppm) was 23%.
O=c1[c-](-c2cccc(C(F)(F)F)c2)c(=O)[n+](Cc2cncnc2)c2ccccn12 [Triflumezopyrim (II-7), 3,4-dihydro-2,4-dioxo-1-(pyrimidin-5-ylmethyl)-3-(α,α,α-trifluoro-m-tolyl)-2H-pyrido[1,2-a]pyrimidin-1-ium-3-ide] showed an Observed efficacy (Alternaria solani; 0.25 ppm) of 36%.
In the case of CC(O)(Cn1cncn1)c1ccc(Oc2ccc(Cl)cc2)cc1C(F)(F)F (centres unmarked) [I-3, 2-[4-(4-chlorophenoxy)-2-(trifluoromethyl)phenyl]-1-(1,2,4-triazol-1-yl)propan-2-ol], the Observed efficacy (Septoria tritici; 0.00025 ppm) was 28%, the Observed efficacy (Botrytis cinerea; 0.063 ppm) was 42% and the Observed efficacy (Leptosphaeria nodorum; 0.016 ppm) was 35%. For the same compound, the Observed efficacy (Pyricularia oryzae; 0.25 ppm) was 10%, the Observed efficacy (Phytophthora infestans; 0.063 ppm) was 12% and the Observed efficacy (Alternaria solani; 0.001 ppm) was 9%.
Work on CNC(=O)Oc1cc(C)c(SC)c(C)c1 [Methiocarb (II-4), 4-methylthio-3,5-xylyl methylcarbamate] yielded an Observed efficacy (Septoria tritici; 0.063 ppm) of 6%, an Observed efficacy (Pyricularia oryzae; 63 ppm) of 36% and an Observed efficacy (Phytophthora infestans; 63 ppm) of 51%.
